Assay results published in patent US20230095695A1, “RNAS FOR COMPLEMENT INHIBITION” (Apellis Pharmaceuticals, Inc., priority 2020, published 2023).
Oligonucleotides are written 5' to 3', each unit as a sugar letter and its base; * is a phosphorothioate linkage, no mark a phosphodiester; rarer units and linkages stand in square brackets, end groups in braces. Plain capitals give the bases only. m = 2'-O-methyl; {P} = phosphate; f = 2'-fluoro

System: C3 mRNA
Test: Dose response experiments (DRC) of modification variants, C3 mRNA knockdown in HepG2 cells
Format: cell-based, human
Details: for IC50 / IC80: 10 concentrations from 100 nM in 6-fold dilution steps; for Max KD: DRC experiments
Description: HepG2 cells were obtained from ATCC (ATCC in partnership with LGC Standards, Wesel, Germany, cat. #ATCC-HB-8065) and cultured in MEM Eagle (#M2279, Sigma-Aldrich, Germany), supplemented to contain 10% fetal calf serum (#1248D, Biochrom GmbH, Berlin, Germany), 1× non-essential amino acids (#K0293; Biochrom, Berlin, Germany), 4 mM L-Glutamine (#K0283, Biochrom, Berlin, Germany) and 100 U/ml Penicillin/100 μg/ml Streptomycin (#A2213, Biochrom GmbH, Berlin, Germany) at 37° C. in an atmosphere with 5% CO2 in a humidified incubator.
siRNAs were designed and synthesized based on the nucleotide sequence of the top siRNAs in terms of activity from Examples 1 and 2 (siRNA ID: 1, 4, 9, 10, 16, and 22) with different modification patterns. 5 “variants” were designed and synthesized for each of the top siRNA nucleotide sequences, and each duplex is identified as “variant1”, “variant2”, “variant3”, variant4”, “variant5” depending on which modifications were made. siRNAs from Examples 1 and 2 (siRNA ID: 1, 4, 9, 10, 16, and 22) are identified as “variant0”.
Transfection of siRNA was carried out with Lipofectamine RNAiMax (Invitrogen/Life Technologies, Karlsruhe, Germany) according to manufacturer's instructions for reverse transfection.
Each siRNA was tested using dose response experiments (DRC) in HepG2 cells. Two additional siRNAs (siRNA ID 26 and 27), known to knockdown C3 expression, were used as positive controls.
Dose-response experiments were done with siRNA in 10 concentrations transfected in quadruplicates, starting at 100 nM in 6-fold dilutions steps down to ˜10 fM. Mock transfected cells served as negative controls.
For each well, the target mRNA level was normalized to the respective GAPDH mRNA level. The activity of a given siRNA was expressed as percent mRNA concentration of the respective target (normalized to GAPDH mRNA) in treated cells, relative to the target mRNA concentration (normalized to GAPDH mRNA) averaged across mock transfected wells (DRCs).

Substance	IC50 [nM]	IC80 [nM]	Max KD [%]	C3 knockdown, comparison among modification variants of the same nucleotide sequence
38 (sense mA*mU*fCmGmGmAfUfCfUmUmCfAmCmCmGmUfCmAmA; antisense mU*fU*mGmAmCmGmGmUmGmAmAmGmAfUmCmCmGmAmU*mA*mG; siRNA) [compound 38]	0.151	0.728	91	
57 (sense mC*mC*fAmAmCmUfAfCfAmUmGfAmAmCmCmUfAmCmA; antisense mU*fG*mUmAmGfGmUmUmCmAmUmGmUfAmGfUmUmGmG*mC*mU; siRNA) [compound 57]	0.029	1.38	91	
43 (sense mU*mC*fAmAmCmUfUfCfCmUmCfCmUmGmCmGfAmAmA; antisense mU*fU*mUmCmGmCmAmGmGmAmGmGmAfAmGmUmUmGmA*mC*mG; siRNA) [compound 43]	0.096	3.22	82	
32 (sense mU*mC*fAmAmCmUfCfAfCmCmUfGmUmAmAmUfAmAmA; antisense mU*fU*mUmAmUfUmAmCmAmGmGmUmGfAmGfUmUmGmA*mU*mC; siRNA) [compound 32]	0.018	0.108	93	most effective in C3 knockdown
34 (sense fU*mC*fCmAfAmGfCmCfUmUfGmGfCmUfCmAfAmUfA; antisense mU*fA*mUfUmGfAmGfCmCfAmAfGmGfCmUfUmGfGmA*mA*mC; siRNA) [compound 34]	0.324	1.64	86	
42 (sense mA*mU*fCmGmGmAfUfCfUmUmCfAmCmCmGmUfCmAmA; antisense mU*fU*mGmAmCfGmGmUmGmAmAmGmAfUmCfCmGmAmU*mA*mG; siRNA) [compound 42]	0.5	2.91	84	
29 (sense fU*mC*fAmAfCmUfCmAfCmCfUmGfUmAfAmUfAmAfA; antisense mU*fU*mUfAmUfUmAfCmAfGmGfUmGfAmGfUmUfGmA*mU*mC; siRNA) [compound 29]	0.979		68	
28 (sense mU*mC*fAmAmCmUfCfAfCmCmUfGmUmAmAmUfAmAmA; antisense mU*fU*mUmAmUmUmAmCmAmGmGmUmGfAmGmUmUmGmA*mU*mC; siRNA) [compound 28]	0.001	0.711	95	
56 (sense fC*mC*fAmAfCmUfAmCfAmUfGmAfAmCfCmUfAmCfA; antisense mU*fG*mUmAmGfGmUmUmCmAmUmGmUfAmGfUmUmGmG*mC*mU; siRNA) [compound 56]	0.228	1.2	91	
35 (sense fU*mC*fCmAfAmGfCmCfUmUfGmGfCmUfCmAfAmUfA; antisense mU*fA*mUmUmGmAmGmCmCmAmAmGmGfCmUmUmGmGmA*mA*mC; siRNA) [compound 35]	0.622		55	
41 (sense fA*mU*fCmGfGmAfUmCfUmUfCmAfCmCfGmUfCmAfA; antisense mU*fU*mGmAmCfGmGmUmGmAmAmGmAfUmCfCmGmAmU*mA*mG; siRNA) [compound 41]	1.4	11.1	84	
33 (sense mU*mC*fCmAmAmGfCfCfUmUmGfGmCmUmCmAfAmUmA; antisense mU*fA*mUmUmGmAmGmCmCmAmAmGmGfCmUmUmGmGmA*mA*mC; siRNA) [compound 33]	0.075	0.601	91	
37 (sense mU*mC*fCmAmAmGfCfCfUmUmGfGmCmUmCmAfAmUmA; antisense mU*fA*mUmUmGfAmGmCmCmAmAmGmGfCmUfUmGmGmA*mA*mC; siRNA) [compound 37]	0.168	1.38	86	
31 (sense fU*mC*fAmAfCmUfCmAfCmCfUmGfUmAfAmUfAmAfA; antisense mU*fU*mUmAmUfUmAmCmAmGmGmUmGfAmGfUmUmGmA*mU*mC; siRNA) [compound 31]	0.343	7.64	81	
47 (sense UCAACUUCCUCCUGCGAAA; antisense UUUCGCAGGAGGAAGUUGACG; 2'-F, 2'-OMe, phosphorothioate modifications, chemistry not fully specified) [compound 47]	0.055	0.708	83	
54 (sense fC*mC*fAmAfCmUfAmCfAmUfGmAfAmCfCmUfAmCfA; antisense mU*fG*mUfAmGfGmUfUmCfAmUfGmUfAmGfUmUfGmG*mC*mU; siRNA) [compound 54]	0.29	1.52	89	

Substance	IC50 [nM]	IC80 [nM]	Max KD [%]	C3 knockdown, comparison among modification variants of the same nucleotide sequence
52 (sense mC*mA*fAmUmGmAfCfUfUmUmGfAmCmGmAmGfUmAmA; antisense mU*fU*mAmCmUfCmGmUmCmAmAmAmGfUmCfAmUmUmG*mG*mA; siRNA) [compound 52]	0.058	1.89	85	
51 (sense fC*mA*fAmUfGmAfCmUfUmUfGmAfCmGfAmGfUmAfA; antisense mU*fU*mAmCmUfCmGmUmCmAmAmAmGfUmCfAmUmUmG*mG*mA; siRNA) [compound 51]			32	
39 (sense fA*mU*fCmGfGmAfUmCfUmUfCmAfCmCfGmUfCmAfA; antisense mU*fU*mGfAmCfGmGfUmGfAmAfGmAfUmCfCmGfAmU*mA*mG; siRNA) [compound 39]	0.326	1.66	86	
55 (sense fC*mC*fAmAfCmUfAmCfAmUfGmAfAmCfCmUfAmCfA; antisense mU*fG*mUmAmGmGmUmUmCmAmUmGmUfAmGmUmUmGmG*mC*mU; siRNA) [compound 55]	0.265	1.74	89	
26 (sense CAACUCACCUGUAAUAAAUUU; antisense AUUUAUUACAGGUGAGUUGUU; siRNA; sense: all phosphodiester, sugars by position not given here; antisense: all phosphodiester, 5' {P}, sugars by position not given here) [compound 26]	0.006	0.062	86	
40 (sense fA*mU*fCmGfGmAfUmCfUmUfCmAfCmCfGmUfCmAfA; antisense mU*fU*mGmAmCmGmGmUmGmAmAmGmAfUmCmCmGmAmU*mA*mG; siRNA) [compound 40]	0.468	2.44	87	
30 (sense fU*mC*fAmAfCmUfCmAfCmCfUmGfUmAfAmUfAmAfA; antisense mU*fU*mUmAmUmUmAmCmAmGmGmUmGfAmGmUmUmGmA*mU*mC; siRNA) [compound 30]			36	
48 (sense mC*mA*fAmUmGmAfCfUfUmUmGfAmCmGmAmGfUmAmA; antisense mU*fU*mAmCmUmCmGmUmCmAmAmAmGfUmCmAmUmUmG*mG*mA; siRNA) [compound 48]	0.119	8.35	82	
49 (sense fC*mA*fAmUfGmAfCmUfUmUfGmAfCmGfAmGfUmAfA; antisense mU*fU*mAfCmUfCmGfUmCfAmAfAmGfUmCfAmUfUmG*mG*mA; siRNA) [compound 49]			28	
53 (sense mC*mC*fAmAmCmUfAfCfAmUmGfAmAmCmCmUfAmCmA; antisense mU*fG*mUmAmGmGmUmUmCmAmUmGmUfAmGmUmUmGmG*mC*mU; siRNA) [compound 53]	0.056	0.51	91	
46 (sense fU*mC*fAmAfCmUfUmCfCmUfCmCfUmGfCmGfAmAfA; antisense mU*fU*mUmCmGfCmAmGmGmAmGmGmAfAmGfUmUmGmA*mC*mG; siRNA) [compound 46]	0.54		63	
36 (sense fU*mC*fCmAfAmGfCmCfUmUfGmGfCmUfCmAfAmUfA; antisense mU*fA*mUmUmGfAmGmCmCmAmAmGmGfCmUfUmGmGmA*mA*mC; siRNA) [compound 36]	0.486		68	
45 (sense fU*mC*fAmAfCmUfUmCfCmUfCmCfUmGfCmGfAmAfA; antisense mU*fU*mUmCmGmCmAmGmGmAmGmGmAfAmGmUmUmGmA*mC*mG; siRNA) [compound 45]	0.905		50	
44 (sense fU*mC*fAmAfCmUfUmCfCmUfCmCfUmGfCmGfAmAfA; antisense mU*fU*mUfCmGfCmAfGmGfAmGfGmAfAmGfUmUfGmA*mC*mG; siRNA) [compound 44]	0.386		76	
27 (sense GAGCCGUUCUCUACAAUUAUU; antisense UAAUUGUAGAGAACGGCUCUU; siRNA; sense: all phosphodiester, sugars by position not given here; antisense: all phosphodiester, 5' {P}, sugars by position not given here) [compound 27]	0.004	0.027	89	
50 (sense fC*mA*fAmUfGmAfCmUfUmUfGmAfCmGfAmGfUmAfA; antisense mU*fU*mAmCmUmCmGmUmCmAmAmAmGfUmCmAmUmUmG*mG*mA; siRNA) [compound 50]			16	
